Results on one molecule are retold here after patent publication US11332485B2, “Penicillin-binding protein inhibitors” (priority 2017, dated 2022).

Each structure is given as a SMILES string. Some results are limits rather than exact numbers.

Assay [1] concerns the target T1, PBP3 from Escherichia coli (Escherichia coli, UniProt P0AD68).
T1 construct: made in house
As to the kind of experiment: Competition binding assay using Bodipy-FL boronic acid probe (Example 95). To be noted: PBP3 3 μM, read-out: E. coli K12 PBP3 Potency. The procedure: PBP3 from Escherichia coli was cloned and purified as described previously (King, D. T, et al., ACS Infectious Diseases 2015, 1, 175-184). To establish assay conditions for competition binding, an enzyme titration/saturation binding experiment was performed. […] FP was measured immediately upon addition of PBP3 (Ex, Em), using a Cytation3 (BioTek) microplate reader and measured continuously for 60 minutes. […] The competition binding assay was validated using the beta-lactam ampicillin, with Bocillin-FL at a final concentration of 0.1 μM, PBP3 at a final concentration of 1.5 μM and concentrations of ampicillin from 0-1000 μM. […] Binding assays for boronic acid PBP inhibitors were performed in an identical fashion. Representative results are shown in Table 3, where A represents a potency of >500 μM, B represents a potency between 30 μM and 500 μM inclusive, and C represents a potency of <30 μM. NT=Not Tested.
The method described in Example II was adapted to use a Bodipy-labeled boronic acid PBP inhibitor (Example 13 or Example 95) to assess PBP3 potency of boronic acid PBP inhibitors. The method is identical to that described in Example II for the Bocillin-FL competition binding assay, with the following exceptions: PBP3 from Escherichia coli is used at a final concentration of 3 μM. […]

The next assay deals with S. aureus ATCC 29213. As to the kind of experiment: Broth microdilution MIC assay. It is filed as cell-based. As to conditions: Staphylococcus aureus, ATCC29213; broth microdilution, 16-20 hours at 37° C.; read-out: S. aureus 29213 MIC. Put shortly:
(§1)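 Visual no-growth endpoint defines the MIC. Inoculum of 5×10^5 CFU/mL in divalent-cation-supplemented Mueller-Hinton broth was exposed to 2-fold dilution series of compound, then incubated 16-20 hours at 37° C per CLSI.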
For orientation: In broth dilution the organism is exposed to a series of concentrations in liquid medium.

The subject of assay [2] is hyper-permeable E. coli 901C. The assay is described as follows: Broth microdilution MIC assay. Type of assay: cell-based. To be noted: Escherichia coli, read-out: E. coli 901C MIC. Put shortly:
as §1

For another assay, the system named is E. coli DH5α/pLBII. As to the kind of experiment: Broth microdilution MIC assay, empty vector control strain. As to conditions: Escherichia coli, read-out: E. coli DH5α/pLBII Microbiological Activity (MIC). Type of assay: cell-based. Put shortly:
(§2)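 CLSI broth microdilution in cation-supplemented Mueller-Hinton broth, 2-fold compound dilutions, 5×10^5 CFU/mL inoculum, 16-20 h at 37° C, MIC read visually as lowest concentration without growth. E. coli DH5α carries CTX-M15 on pLBII under Lac promoter, or empty pLBII as control.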

For assay [3], the system named is E. coli DH5α/pLBII-CTX-M15. As to the kind of experiment: Broth microdilution MIC assay, engineered strain producing CTX-M15. Type of assay: cell-based, Escherichia coli. To be noted: Escherichia coli, read-out: E. coli DH5α/pLBII-CTX-M15 Microbiological Activity (MIC). The gist of the method: as §2

T1 sequence (P0AD68 1-577): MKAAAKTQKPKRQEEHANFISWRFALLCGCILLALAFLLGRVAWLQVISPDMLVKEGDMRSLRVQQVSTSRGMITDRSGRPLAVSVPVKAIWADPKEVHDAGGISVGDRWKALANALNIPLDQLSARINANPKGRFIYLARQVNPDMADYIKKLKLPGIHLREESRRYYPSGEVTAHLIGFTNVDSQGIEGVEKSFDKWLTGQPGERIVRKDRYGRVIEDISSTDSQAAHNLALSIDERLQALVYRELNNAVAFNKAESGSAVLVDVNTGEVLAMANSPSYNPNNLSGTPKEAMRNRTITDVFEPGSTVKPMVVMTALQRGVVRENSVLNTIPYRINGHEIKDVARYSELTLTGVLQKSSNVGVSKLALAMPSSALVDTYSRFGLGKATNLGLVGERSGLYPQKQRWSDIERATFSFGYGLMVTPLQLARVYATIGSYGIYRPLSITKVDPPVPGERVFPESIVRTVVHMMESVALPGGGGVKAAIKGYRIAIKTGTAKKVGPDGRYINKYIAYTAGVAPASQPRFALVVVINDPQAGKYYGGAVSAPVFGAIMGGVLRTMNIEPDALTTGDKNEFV

In the case of `CCN1CCN(C(=O)NC(C(=O)N[C@H]2Cc3cccc(C(=O)O)c3OB2O)c2csc(N)n2)C(=O)C1=O` (stereo partly drawn) [Example 12, (3R)-3-(2-(2-aminothiazol-4-yl)-2-(4-ethyl-2,3-dioxopiperazine-1-carboxamido)acetamido)-2-hydroxy-3,4-dihydro-2H-benzo[e][1,2]oxaborinine-8-carboxylic acid], in assay [1], the EC50 is under 10 µM. In addition, the MIC in the assay with S. aureus ATCC 29213 was 64 to 128 µg/mL; in assay [2], under 64 µg/mL; in the assay on E. coli DH5α/pLBII, 8 to 16 µg/mL; in assay [3] it was 8 to 16 µg/mL.
